In patent publication US9296716B2, “Androgen receptor ligands” (THE PROVOST, FELLOWS, FOUNDATION SCHOLARS, & THE OTHER …, priority 2011, dated 2016):

What was measured:
22Rv1 cells = test: 22Rv1 cell proliferation assay; format: cell-based
Experimental: Thus, inhibition on cell proliferation by the compounds could not be evaluated (FIG. 14)
(§1) We repeated the same experiment in 22Rv1 cell line.
For cell viability (end point) assays LNCaP, PC-3 and PWR-1E cells were seeded at 2.5*10^4/ml density in 200 μl volume of a 96-well plate in triplicate and incubated for 24 hours prior testing. Test compounds were included at different concentrations to achieve a final concentration of 0.5% DMSO in each well. Effect of 0.5% DMSO on cell-viability was also evaluated. Cell viability was assessed after 24 hours of treatment using 10% Alamar Blue reagent (Invitrogen) for each well. Cell viability was monitored by the reduction of resazurin, a blue, cell-permeable and non-toxic compound, to resorufin, a red and highly fluorescent product. Viable cells continuously convert resazurin to resorufin, increasing the overall colour and fluorescence of the media surrounding cells. Fluorescence intensity can be quantitatively determined with a fluorescence microplate reader at excitation/emission 544 nm/590 nm (Spectramax Gemini). […] A control for the vehicle was included to ensure no effect on viability could be detected. […] Supernatants were collected after five days for secreted PSA levels evaluation and cell proliferation was assessed for the same plate using Alamar Blue in order to exclude non-specific effects due to toxicity issues.

[1] = biological target: Estrogen Receptor beta (ER-β) LBD (Homo sapiens, UniProt Q92731); test: TR-FRET PGC1-α coactivator recruitment assay, ERβ LBD; format: biochemical; details: Estradiol = EC80
Experimental: (§2) Compound binding affinities for Progesterone Receptor (PR), Glucocorticoid Receptor (GR), Estrogen Receptor alpha and Estrogen Receptor beta were determined using TR-FRET (Table 2).
Selectivity of the diarylhydrazide scaffold for the AR was determined through a TR-FRET assay in ERα (FIGS. 8A & 9A1) and ERR (FIGS. 8B & 9A2). […] The non-LBP nature of this inhibition was confirmed by a FP assay (FIGS. 9C, 9B1 & 9B2).
(§3) Lanthascreen TR-FRET AR Coactivator Assay kit (Invitrogen, cat no. PV4381) was used to screen for potential coactivator disruptors.
(§4) TR FRET values were calculated at 10 flashes per well, using a delay time of 100 μs and integration time 200 μs as recommended by the Invitrogen assay guidelines. […] A serial dilution of compounds was firstly prepared in 100×DMSO (Sigma-Aldrich) starting from the maximum desired concentration to achieve a 12 point range concentration using 96-well polypropylene plates (Nalgene Nunc, Rochester, N.Y.). Each 100× solution was diluted to 2× concentration with TR-FRET co-regulator buffer A (Invitrogen proprietary buffer), yielding a final concentration of 1% DMSO in each well.
(§5) D11-FxxLF and Tb antibody were premixed in light protecting vials prior to use. A final concentration of DTT 5 mM was used in the assay buffer in order to prevent protein degradation. All plates (agonist and antagonist mode) were incubated between 2 and 4 hours at room temperature protected from light prior to TR-FRET measurement. […] Data was fitted using the sigmoidal dose response (variable slope) available from Graphpad Prism 5. Y=Bottom+(Top-Bottom)/(1+10^((Log IC50−X)*HillSlope))
(§6) The same procedure was used for AR T877A (Invitrogen cat no. PV4667), PR (Invitrogen cat no. PV4666), ER-α (Invitrogen cat no. PV4544), ER-β (Invitrogen cat no. PV4541) and GR (Invitrogen cat no. PV4683). The assay was adapted to exclude possible non-specific aggregation mechanism of inhibition by adding very low concentration of detergent Triton X-100 (0.001%) to the assay buffer following the Shoichet review guidelines [Shoichet BK (2006) Screening in a spirit haunted world. Drug Discov Today 11:607-615].

AR-LBD T877A mutant = biological target: T1, AR-LBD T877A mutant (Homo sapiens, UniProt P10275, T878A); test: TR-FRET coactivator assay, AR T877A mutant; format: biochemical; details: D11-FxxLF peptide, DHT = EC80
T1 construct: purchased Invitrogen PV4667
T1 sequence (P10275 669-900 T878A): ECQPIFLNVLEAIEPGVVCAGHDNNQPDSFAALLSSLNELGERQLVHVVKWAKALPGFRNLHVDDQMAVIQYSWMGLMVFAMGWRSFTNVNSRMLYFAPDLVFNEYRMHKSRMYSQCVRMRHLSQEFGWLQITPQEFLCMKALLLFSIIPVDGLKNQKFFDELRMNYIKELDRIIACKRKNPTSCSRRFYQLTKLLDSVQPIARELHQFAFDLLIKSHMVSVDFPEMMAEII

[2] = system: PSA expression in 22Rv1 cells; test: PSA ELISA, secreted PSA in 22Rv1 cells; format: cell-based
Experimental: To investigate compounds effect on PSA expression, a common biomarker for prostate cancer, we utilized a human PSA ELISA assay.
as §1
Secreted levels of prostate specific antigen were evaluated with a commercially available kit (Quantikine Human Kallikrein 3/PSA Immunoassay, R&D systems). The assay was performed following manufacturer's guidelines. In brief, 50 μl of standards and cell culture samples were added to pre-coated wells containing assay diluent RD1W (R&D systems) and incubated for two hours at room temperature. Unbound material was washed several times and 200 μl of Horseradish Peroxidase (HRP) labeled PSA conjugate antibody was added to each well and further incubated for two hours at room temperature. Wells were washed and treated with colored substrate (Tetramethylbenzidine) for an additional 30 minutes, after which 50 μl of stop solution (Sulphuric Acid 2N) was added per well and absorbance (450 nm with correction at 540 nm) was read with a plate reader within 30 minutes (Versamax).

[3] = biological target: T2, Glucocorticoid Receptor (GR) LBD (Homo sapiens, UniProt P04150); test: TR-FRET SRC1-4 coactivator recruitment assay, GR LBD; format: biochemical; details: Dexamethasone = EC80
T2 construct: purchased Invitrogen PV4683
T2 sequence (P04150 524-758 limits assumed): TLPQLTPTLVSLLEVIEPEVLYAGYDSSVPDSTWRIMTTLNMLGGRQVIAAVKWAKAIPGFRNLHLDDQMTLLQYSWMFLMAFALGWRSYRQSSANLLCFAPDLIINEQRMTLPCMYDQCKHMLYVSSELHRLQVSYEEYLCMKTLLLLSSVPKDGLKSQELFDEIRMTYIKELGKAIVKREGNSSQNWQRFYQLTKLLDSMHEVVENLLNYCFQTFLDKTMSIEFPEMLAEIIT
Experimental: as §2
Dexamethasone bound receptor recruitment of the fluorescently labelled SCR1-4 coactivator was unimpaired at screening concentrations up to 100 μM for all the diarylhydrazides evaluated (FIG. 5).
as §3, §4, §5, §6

Sequence of Estrogen Receptor beta (ER-β) LBD (Q92731 264-498 limits assumed): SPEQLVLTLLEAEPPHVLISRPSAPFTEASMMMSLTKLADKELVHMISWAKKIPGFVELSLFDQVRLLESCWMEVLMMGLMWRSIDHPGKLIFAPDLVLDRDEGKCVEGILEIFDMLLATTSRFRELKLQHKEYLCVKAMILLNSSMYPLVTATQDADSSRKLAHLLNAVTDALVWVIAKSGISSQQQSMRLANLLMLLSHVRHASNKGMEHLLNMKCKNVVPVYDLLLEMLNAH

SMILES: COc1cc(/C=N/NC(=O)c2cc3c(ccc4ccccc43)o2)cc(OC)c1O [MDG506]
- cell proliferation in absence of androgens (22Rv1 cells): does not induce
- effect on ERβ recruitment of fluorescent labelled PGC1-α ([1]; 100 μM to 45 nM): partially inhibit
- IC50 ([1]; TR-FRET, ± SEM (n = 6), read-out: NR LBDs IC50 (μM) ER-β): > 100 µM
- IC50 (AR-LBD T877A mutant): 33.2 ± 5.9 µM
- DHT stimulated PSA expression ([2]; 22Rv1): no effect could be seen
- PSA expression in absence of androgens ([2]; 22Rv1): does not induce
- CPA stimulated PSA expression ([2]; 22Rv1, MDG506 at different concentrations): reduced
- effect on SRC1-4 recruitment by GR LBD ([3]; 100 μM to 12.5 μM or single point 100 μM): do not affect
- IC50 ([3]; TR-FRET, ± SEM (n = 6), read-out: NR LBDs IC50 (μM) GR): > 100 µM
